# Source: US20030229451A1, “Methods and systems for analyzing complex biological systems” (priority 2001, published 2003)
# System: Saccharomyces cerevisiae wild type strain BY4743
# Experiment: AF1 metabolite analysis (GC-MS, LC-MS) of yeast cells treated with antifungal drugs
# Type: cell-based
# Conditions: for # Compounds perturbed: 2x MIC, two hours; for Fold Change of NacetylDglucosamine: metabolite NacetylDglucosamine; for Fold Change of NacetylLglutamate: metabolite NacetylLglutamate; for Fold Change of NacetylLornithine: metabolite NacetylLornithine; for Fold Change of nicotinic acid: metabolite nicotinic acid; for Fold Change of nopaline: metabolite nopaline; for Fold Change of oleic acid: metabolite oleic acid; for Fold Change of ornithine: metabolite ornithine; for Fold Change of phenylalanine: metabolite phenylalanine; for Fold Change of phosphoenolpyruvate: metabolite phosphoenolpyruvate; for Fold Change of pipecolic acid: metabolite pipecolic acid; for Fold Change of proline: metabolite proline; for Fold Change of pyridoxine: metabolite pyridoxine; for Fold Change of selenoDLmethionine: metabolite selenoDLmethionine; for Fold Change of serine: metabolite serine; for Fold Change of sugar-phosphate: metabolite sugar-phosphate; for Fold Change of tetradecanoic acid: metabolite tetradecanoic acid; for Fold Change of threonine/homoserin: metabolite threonine/homoserin; for Fold Change of thymine: metabolite thymine; for Fold Change of tryptophan: metabolite tryptophan; for Fold Change of tyrosine: metabolite tyrosine; for Fold Change of urocanic acid: metabolite urocanic acid; for Fold Change of valine: metabolite valine; for Fold Change of zeatin: metabolite zeatin
compound,measurement,setting,value
CC[C@@H]([C@H](C)O)n1ncn(-c2ccc(N3CCN(c4ccc(OC[C@@H]5CO[C@@](Cn6cncn6)(c6ccc(F)cc6F)C5)cc4)CC3)cc2)c1=O [Posaconazole],# Compounds perturbed,P < 0.05,3
same,# Compounds perturbed,P < 0.1,4
same,Fold Change,"metabolite 2-ketobutyric acid, platform nLC",−0.9992
same,Fold Change,"metabolite 2-ketoglutaric, platform nLC",11.33
same,Fold Change,"metabolite 3-indolylacetonitri, platform nLC",−0.9998
same,Fold Change,"metabolite 4-aminobenzoic acid, platform pLC",0
same,Fold Change,"metabolite 4-methylcatechol, platform nLC",0
same,Fold Change,"metabolite 4-methylcatechol, platform pLC",0
same,Fold Change,"metabolite 4ambutyrate/dimglyc, platform pLC",31.37
same,Fold Change,"metabolite 4aminobutyrate/dimg, platform nLC",−0.008939
same,Fold Change,"metabolite 5hydroxyLtryptophan, platform nLC",0
same,Fold Change,"metabolite 5hydroxyLtryptophan, platform pLC",0
same,Fold Change,"metabolite 6-benzylaminopurine, platform nLC",0
same,Fold Change,"metabolite 6benzylaminopurine, platform pLC",0
same,Fold Change,"metabolite DLaminoadipic acid, platform nLC",−0.9935
same,Fold Change of NacetylDglucosamine,platform nLC,0
same,Fold Change of NacetylDglucosamine,platform pLC,0
same,Fold Change of NacetylLglutamate,platform nLC,−0.07165
same,Fold Change of NacetylLglutamate,platform pLC,0
same,Fold Change of NacetylLornithine,platform nLC,0
same,Fold Change of NacetylLornithine,platform pLC,0.1338
same,Fold Change of TMS mevalonic acid lactone,"metabolite TMS mevalonic acid lactone, platform GC",−0.3118
same,Fold Change,"metabolite abscisic acid, platform nLC",0
same,Fold Change,"metabolite abscisic acid, platform pLC",0
same,Fold Change,"metabolite aconitic acid, platform nLC",1.874
same,Fold Change,"metabolite adenine, platform nLC",0
same,Fold Change,"metabolite adenine, platform pLC",−0.0145
same,Fold Change,"metabolite adenosine, platform nLC",128.3
same,Fold Change,"metabolite adenosine, platform pLC",0
same,Fold Change,"metabolite alanine/sarcosine, platform pLC",0.1013
same,Fold Change,"metabolite alanine, platform GC",1.035
same,Fold Change,"metabolite alanine, platform nLC",0.1091
same,Fold Change,"metabolite allantoic acid, platform nLC",0.3321
same,Fold Change,"metabolite allantoic acid, platform pLC",0
same,Fold Change,"metabolite allantoin, platform nLC",5.97
same,Fold Change,"metabolite anthranillic acid, platform nLC",0
same,Fold Change,"metabolite anthranillic acid, platform pLC",0
same,Fold Change,"metabolite arginine, platform nLC",0.1707
same,Fold Change,"metabolite arginine, platform pLC",0.03383
same,Fold Change,"metabolite argininosuccinate, platform nLC",318.3
same,Fold Change,"metabolite argininosuccinate, platform pLC",0
same,Fold Change,"metabolite asparagine, platform GC",0.145
same,Fold Change,"metabolite asparagine, platform nLC",0.006865
same,Fold Change,"metabolite asparagine, platform pLC",0.4302
same,Fold Change,"metabolite aspartic acid, platform GC",−0.071
same,Fold Change,"metabolite aspartic acid, platform pLC",0.3626
same,Fold Change,"metabolite aspartic, platform nLC",0.305
same,Fold Change,"metabolite benzoic acid, platform nLC",0
same,Fold Change,"metabolite biotin, platform nLC",−0.9992
same,Fold Change,"metabolite biotin, platform pLC",0
same,Fold Change,"metabolite caffeic acid, platform nLC",−0.49
same,Fold Change,"metabolite caffeine, platform pLC",0
same,Fold Change,"metabolite campesterol, platform GC",0
same,Fold Change,"metabolite catechol, platform nLC",0
same,Fold Change,"metabolite cinnamic acid, platform nLC",0
same,Fold Change,"metabolite citric acid TME, platform pLC",0
same,Fold Change,"metabolite citricanoic/itaconi, platform nLC",0
same,Fold Change,"metabolite citrulline, platform nLC",1160
same,Fold Change,"metabolite citrulline, platform pLC",0.1011
same,Fold Change,"metabolite coumaric acid, platform nLC",0
same,Fold Change,"metabolite cytidine, platform nLC",−0.9986
same,Fold Change,"metabolite cytidine, platform pLC",0
same,Fold Change,"metabolite cytosine, platform nLC",0
same,Fold Change,"metabolite cytosine, platform pLC",1135
same,Fold Change,"metabolite decanoic acid, platform nLC",0.1263
same,Fold Change,"metabolite desmosterol, platform GC",0
same,Fold Change,"metabolite diaminopimelic acid, platform nLC",0
same,Fold Change,"metabolite diaminopimelic acid, platform pLC",0
same,Fold Change,"metabolite dihydrofolic acid, platform nLC",0
same,Fold Change,"metabolite dihydrofolic acid, platform pLC",0
same,Fold Change,"metabolite dipicolinic acid, platform pLC",0
same,Fold Change,"metabolite disaccaride1, platform GC",0.04733
same,Fold Change,"metabolite disaccaride2, platform GC",0.313
same,Fold Change,"metabolite disaccaride3, platform GC",0.3407
same,Fold Change of mevalonic acid lactone,"metabolite mevalonic acid lactone, platform GC",0.5555
same,Fold Change of mevalonic lactone,"metabolite mevalonic lactone, platform pLC",−0.08368
same,Fold Change of niacinamide,"metabolite niacinamide, platform pLC",0
same,Fold Change of nicotinic acid,platform nLC,1.421
same,Fold Change of nicotinic acid,platform pLC,−0.8142
same,Fold Change of nopaline,platform nLC,0.7554
same,Fold Change of nopaline,platform pLC,0
same,Fold Change of octadecanoic acid,"metabolite octadecanoic acid, platform GC",0.321
same,Fold Change of oleic acid,platform GC,−0.5057
same,Fold Change of oleic acid,platform nLC,0.5606
same,Fold Change of ornithine2,"metabolite ornithine2, platform GC",−0.1383
same,Fold Change of ornithine3,"metabolite ornithine3, platform GC",0.041
same,Fold Change of ornithine,platform nLC,2.314
same,Fold Change of ornithine,platform pLC,0.4314
same,Fold Change of orotic acid,"metabolite orotic acid, platform nLC",0
same,Fold Change of palmiteliadic acid,"metabolite palmiteliadic acid, platform GC",−0.2453
same,Fold Change of palmitic acid,"metabolite palmitic acid, platform nLC",0.1518
same,Fold Change of phenylalanine,platform GC,0.06069
same,Fold Change of phenylalanine,platform nLC,−0.03702
same,Fold Change of phenylalanine,platform pLC,−0.1585
same,Fold Change of phenylpyruvic acid,"metabolite phenylpyruvic acid, platform nLC",0
same,Fold Change of phosphate,"metabolite phosphate, platform GC",−0.1833
same,Fold Change of phosphoenolpyruvate,platform nLC,0
same,Fold Change of phosphoenolpyruvate,platform pLC,0
same,Fold Change of pinitol,"metabolite pinitol, platform nLC",0
same,Fold Change of pipecolic acid,platform nLC,0.1806
same,Fold Change of pipecolic acid,platform pLC,0.3444
same,Fold Change of porphobilinogen,"metabolite porphobilinogen, platform nLC",0
same,Fold Change of progesterone,"metabolite progesterone, platform pLC",0
same,Fold Change of proline,platform nLC,0.3147
same,Fold Change of proline,platform pLC,0.3157
same,Fold Change of pyridoxine,platform nLC,−0.1015
same,Fold Change of pyridoxine,platform pLC,−0.239
same,Fold Change of pyrimidine,"metabolite pyrimidine, platform GC",0.159
same,Fold Change of retinoic acid,"metabolite retinoic acid, platform nLC",0
same,Fold Change of riboflavin,"metabolite riboflavin, platform pLC",0
same,Fold Change of salicylic/HObenzoic,"metabolite salicylic/HObenzoic, platform nLC",0
same,Fold Change of selenoDLmethionine,platform nLC,−0.6722
same,Fold Change of selenoDLmethionine,platform pLC,−0.7083
same,Fold Change of serine,platform nLC,0.152
same,Fold Change of serine,platform pLC,0.2417
same,Fold Change of shikimic acid,"metabolite shikimic acid, platform nLC",0
same,Fold Change of sinapinic acid,"metabolite sinapinic acid, platform nLC",0
same,Fold Change of sorbitol/mannitol,"metabolite sorbitol/mannitol, platform nLC",0.009121
same,Fold Change of squalene,"metabolite squalene, platform GC",0.07431
same,Fold Change of succinic,"metabolite succinic, platform nLC",−0.06141
same,Fold Change of sucrose,"metabolite sucrose, platform nLC",0.1847
same,Fold Change of sugar-phosphate,platform nLC,−0.04543
same,Fold Change of sugar-phosphate,platform pLC,0
same,Fold Change of tetradecanoic acid,platform GC,−0.214
same,Fold Change of tetradecanoic acid,platform nLC,1.029
same,Fold Change of thiamine,"metabolite thiamine, platform pLC",0
same,Fold Change of threonine2,"metabolite threonine2, platform GC",0.457
same,Fold Change of threonine3,"metabolite threonine3, platform GC",0.225
same,Fold Change of threonine/homoserin,platform nLC,0.04034
same,Fold Change of threonine/homoserin,platform pLC,0.1437
same,Fold Change of thymine,platform nLC,0
same,Fold Change of thymine,platform pLC,0
same,Fold Change of tms glutamine3,"metabolite tms glutamine3, platform GC",0.6709
same,Fold Change of tms lysine4,"metabolite tms lysine4, platform GC",0.05667
same,Fold Change of tms tyrosine2,"metabolite tms tyrosine2, platform GC",1.228
same,Fold Change of tms tyrosine3,"metabolite tms tyrosine3, platform GC",0.1911
same,Fold Change of tryptophan,platform nLC,4.676
same,Fold Change of tryptophan,platform pLC,0
same,Fold Change of tyrosine,platform nLC,0.0282
same,Fold Change of tyrosine,platform pLC,0.1008
same,Fold Change of uracil,"metabolite uracil, platform nLC",−0.2779
same,Fold Change of uric acid,"metabolite uric acid, platform pLC",0
same,Fold Change of uridine,"metabolite uridine, platform nLC",0.02855
same,Fold Change of urocanic acid,platform nLC,0
same,Fold Change of urocanic acid,platform pLC,0
same,Fold Change of valine,platform GC,0.345
same,Fold Change of valine,platform nLC,0.0195
same,Fold Change of xanthosine(diH2O),"metabolite xanthosine(diH2O), platform pLC",0
same,Fold Change of xanthosineDiH2O,"metabolite xanthosineDiH2O, platform nLC",0
same,Fold Change of zeatin,platform nLC,0
same,Fold Change of zeatin,platform pLC,0
